The text below walks through data of patent publication US12673946B2, “Pyrimidin-4(3H)-one derivatives as TRPV4 antagonists” (RaQualia Pharma Inc., priority 2020, dated 2026).

By IC50 is commonly meant the point on the concentration scale where inhibition reaches its midpoint.

The assay addresses T1, human TRPV4 (Homo sapiens, UniProt Q9HBA0).
T1 construct: host or cells: tetracycline-inducible Flp-In T-REx 293 cells
The experiment in a line: Hypotonicity-induced Ca2+ influx (Fluo-4, FDSS). It is filed as cell-based. A digest of the protocol: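 Flp-In T-REx 293 cells with tetracycline-induced human TRPV4, loaded with Fluo-4 for 60 min at 25 °C. Compound added 5 min before hypotonic mannitol/CaCl2 solution. Ca2+ signal recorded for 4.5 min on FDSS.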

Where [1] appears, read: Flp-In T-REx 293 cells expressing human TRPV4, examples listed under heading 'Human IC50<50 nM'.
[2] abbreviates: Flp-In T-REx 293 cells stably expressing human TRPV4, compounds listed by potency bin (<10 nM Tables 96-1/96-2, <3 nM Table 97).

T1 sequence (Q9HBA0 whole entry): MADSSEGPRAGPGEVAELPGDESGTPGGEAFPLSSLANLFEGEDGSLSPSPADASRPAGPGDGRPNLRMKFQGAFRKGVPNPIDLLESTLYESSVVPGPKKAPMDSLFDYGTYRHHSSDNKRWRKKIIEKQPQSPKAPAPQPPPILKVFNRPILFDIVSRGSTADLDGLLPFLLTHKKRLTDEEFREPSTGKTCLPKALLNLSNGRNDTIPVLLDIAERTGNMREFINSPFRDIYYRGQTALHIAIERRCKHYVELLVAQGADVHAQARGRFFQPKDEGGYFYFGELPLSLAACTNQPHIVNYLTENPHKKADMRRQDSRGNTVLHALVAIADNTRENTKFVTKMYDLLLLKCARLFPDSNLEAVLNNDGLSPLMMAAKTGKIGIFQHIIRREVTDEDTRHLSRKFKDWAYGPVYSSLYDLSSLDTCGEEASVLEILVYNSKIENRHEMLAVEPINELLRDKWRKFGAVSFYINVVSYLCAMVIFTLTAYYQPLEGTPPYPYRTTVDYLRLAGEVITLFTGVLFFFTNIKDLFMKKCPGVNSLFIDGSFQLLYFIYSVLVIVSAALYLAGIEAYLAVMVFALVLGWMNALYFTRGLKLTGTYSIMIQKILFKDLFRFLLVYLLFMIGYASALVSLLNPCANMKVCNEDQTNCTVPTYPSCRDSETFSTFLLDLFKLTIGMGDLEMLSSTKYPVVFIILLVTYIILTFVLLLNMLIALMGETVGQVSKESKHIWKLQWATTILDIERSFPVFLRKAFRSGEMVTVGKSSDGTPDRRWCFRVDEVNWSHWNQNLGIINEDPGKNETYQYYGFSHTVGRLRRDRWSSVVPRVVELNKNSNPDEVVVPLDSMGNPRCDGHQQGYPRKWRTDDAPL

Turning to `CC(C)Cc1cccc(C2(c3nc4c(c(=O)[nH]3)CN(C(=O)[C@H](O)c3cccc(C(F)(F)F)c3)CCC4)CC2)c1` [31-6], the IC50 runs as follows: under setting [1], under 50 nM; under setting [2], under 3 nM.

As for `O=C([C@H](O)c1cccc(C(F)(F)F)c1)N1CCCc2nc(C3(c4cccc(C5CCOCC5)c4)CC3)[nH]c(=O)c2C1` [31-7], the IC50 runs as follows: under setting [1], under 50 nM; under setting [2], under 10 nM.

Consider `CC(C)c1cccc(C2(c3nc4c(c(=O)[nH]3)CN(C(=O)[C@H](O)c3cccc(C(F)(F)F)c3)CCC4)CC2)c1` [31-8], for which the IC50 is under 50 nM under setting [1] and under 3 nM under setting [2].

Consider `O=C(Cc1ccccc1)N1CCC(c2cccc(C3(c4nc5c(c(=O)[nH]4)CN(C(=O)[C@H](O)c4cccc(C(F)(F)F)c4)CCC5)CC3)c2)CC1` [31-9], for which the IC50 by setting is: under setting [1], under 50 nM; under setting [2], under 10 nM.

Regarding `O=C(c1ccccc1)N1CCC(c2cccc(C3(c4nc5c(c(=O)[nH]4)CN(C(=O)[C@H](O)c4cccc(C(F)(F)F)c4)CCC5)CC3)c2)CC1` [31-10], the IC50 was under 50 nM under setting [1] and under 10 nM under setting [2].

As to `O=C(CCc1ccccc1)N1CCC(c2cccc(C3(c4nc5c(c(=O)[nH]4)CN(C(=O)[C@H](O)c4cccc(C(F)(F)F)c4)CCC5)CC3)c2)CC1` [31-11], the 50% inhibitory concentration (IC50) reads like this: under setting [1], under 50 nM; under setting [2], under 3 nM.

With `CC(C)(C)CC(=O)N1CCC(c2cccc(C3(c4nc5c(c(=O)[nH]4)CN(C(=O)[C@H](O)c4cccc(C(F)(F)F)c4)CCC5)CC3)c2)CC1` [31-12], the IC50 under setting [1] was under 50 nM and the IC50 under setting [2] is under 10 nM.

For the molecule `CC(C)c1cccc(C2(c3nc4c(c(=O)[nH]3)CN(C(=O)Cc3cccc(-c5cccc(C(F)(F)F)c5)c3)CCC4)CC2)c1` [31-13], the IC50 under setting [1] is under 50 nM and the IC50 under setting [2] was under 10 nM.

For the molecule `O=C(Cc1cccc(-c2cccc(C(F)(F)F)c2)c1)N1CCCc2nc(C3(c4cccc(C5CCCCC5)c4)CC3)[nH]c(=O)c2C1` [31-14], the IC50 reads like this: under setting [1], under 50 nM; under setting [2], under 10 nM.

`CC(C)c1cccc(C2(c3nc4c(c(=O)[nH]3)CN(C(=O)Cc3cccc(-c5cccc(Cl)c5)c3)CCC4)CC2)c1` [31-15]: the IC50 is under 50 nM under setting [1] and under 10 nM under setting [2].

In the case of `O=C(Cc1cccc(-c2cccc(Cl)c2)c1)N1CCCc2nc(C3(c4cccc(C5CCCCC5)c4)CC3)[nH]c(=O)c2C1` [31-16], the IC50 is, setting by setting: under setting [1], under 50 nM; under setting [2], under 10 nM.

For the molecule `CC(C)c1cc(C2(c3nc4c(c(=O)[nH]3)CN(C(=O)[C@H](O)c3cccc(C(F)(F)F)c3)CCC4)CC2)ccn1` [32-1], the IC50 reads like this: under setting [1], under 50 nM; under setting [2], under 10 nM.

With `O=C([C@H](O)c1cccc(Cl)c1)N1CCc2nc(C3(c4cccc(-c5cccnc5)c4)CC3)[nH]c(=O)c2C1` [34-1], under setting [1], the half-maximal inhibitory concentration (IC50) was under 50 nM.

For `O=C([C@H](O)c1cccc(Cl)c1)N1CCc2nc(C3(c4cccc(-c5cnsc5)c4)CC3)[nH]c(=O)c2C1` [34-2], the IC50 reads like this: under setting [1], under 50 nM; under setting [2], under 10 nM.

As to `O=C([C@H](O)c1cccc(C(F)(F)F)c1)N1CCc2nc(C3(c4cc(-c5ccccc5)cs4)CC3)[nH]c(=O)c2C1` [36-1], the IC50 by setting is: under setting [1], under 50 nM; under setting [2], under 10 nM.

Turning to `O=C([C@H](O)c1cccc(C(F)(F)F)c1)N1CCc2nc(C3(c4cc(-c5cccnc5)cs4)CC3)[nH]c(=O)c2C1` [36-2], the IC50 under setting [1] is under 50 nM.

As to `O=C([C@H](O)c1cccc(C(F)(F)F)c1)N1CCc2nc(C3(c4cccc(-c5ccccc5)c4)CC3)[nH]c(=O)c2C1` [37-1], the IC50 is under 50 nM under setting [1] and under 3 nM under setting [2].

Take `O=C([C@H](O)c1cccc(C(F)(F)F)c1)N1CCc2nc(C3(c4cccc(-c5cccnc5)c4)CC3)[nH]c(=O)c2C1` [37-2]: the IC50 is under 50 nM under setting [1] and under 10 nM under setting [2].

Take `O=C([C@H](O)c1cccc(C(F)(F)F)c1)N1CCc2nc(C3(c4cccc(-c5cnsc5)c4)CC3)[nH]c(=O)c2C1` [37-3]: the IC50 by setting is: under setting [1], under 50 nM; under setting [2], under 3 nM.

Regarding `O=C([C@H](O)c1cccc(C(F)(F)F)c1)N1CCc2nc(C3(c4cncc(-c5ccccc5)c4)CC3)[nH]c(=O)c2C1` [38-1], the IC50 is, setting by setting: under setting [1], under 50 nM; under setting [2], under 3 nM.

Molecule `O=C([C@H](O)c1cccc(Cl)c1)N1CCCc2nc(C3(c4cc(-c5ccccc5)cs4)CC3)[nH]c(=O)c2C1` [39-1] displayed an IC50 under setting [1] of under 50 nM and an IC50 under setting [2] of under 3 nM.

Consider `O=C([C@H](O)c1cccc(Cl)c1)N1CCCc2nc(C3(c4cc(-c5cnsc5)cs4)CC3)[nH]c(=O)c2C1` [39-2], for which the IC50 reads like this: under setting [1], under 50 nM; under setting [2], under 10 nM.

Under setting [1], `O=C([C@H](O)c1cccc(Cl)c1)N1CCCc2nc(C3(c4cc(-c5cccnc5)cs4)CC3)[nH]c(=O)c2C1` [39-3] came in with an IC50 of under 50 nM.

For `O=C([C@H](O)c1cccc(Cl)c1)N1CCCc2nc(C3(c4cccc(-c5ccccc5)c4)CC3)[nH]c(=O)c2C1` [40-1], the IC50 is under 50 nM under setting [1] and under 3 nM under setting [2].

On to `O=C([C@H](O)c1cccc(Cl)c1)N1CCCc2nc(C3(c4cccc(-c5cnsc5)c4)CC3)[nH]c(=O)c2C1` [40-2], for which the IC50 is under 50 nM under setting [1] and under 3 nM under setting [2].

As for `O=C([C@H](O)c1cccc(Cl)c1)N1CCCc2nc(C3(c4cccc(-c5cccnc5)c4)CC3)[nH]c(=O)c2C1` [40-3], the IC50 is under 50 nM under setting [1] and under 10 nM under setting [2].

As for `C=C(C)c1cccc(C2(c3nc4c(c(=O)[nH]3)CN(C(=O)[C@H](O)c3cccc(Cl)c3)CCC4)CC2)c1` [40-4, (R)-6-(2-(3-chlorophenyl)-2-hydroxyacetyl)-2-(1-(3-(prop-1-en-2-yl)phenyl)cyclopropyl)-3,5,6,7,8,9-hexahydro-4H-pyrimido[5,4-c]azepin-4-one], the IC50 is, setting by setting: under setting [1], under 50 nM; under setting [2], under 3 nM.

Consider `CC(C)(C)c1ccc(-c2cccc(C3(c4nc5c(c(=O)[nH]4)CN(C(=O)[C@H](O)c4cccc(Cl)c4)CCC5)CC3)c2)cc1` [40-5], for which the IC50 reads like this: under setting [1], under 50 nM; under setting [2], under 10 nM.

Turning to `O=C([C@H](O)c1cccc(Cl)c1)N1CCCc2nc(C3(c4cccc(-c5cccc(Cl)c5)c4)CC3)[nH]c(=O)c2C1` [40-6], the IC50 runs as follows: under setting [1], under 50 nM; under setting [2], under 10 nM.

Regarding `O=C([C@H](O)c1cccc(Cl)c1)N1CCCc2nc(C3(c4cccc(-c5ccc(Cl)cc5)c4)CC3)[nH]c(=O)c2C1` [40-7], the IC50 reads like this: under setting [1], under 50 nM; under setting [2], under 10 nM.

For `O=C([C@H](O)c1cccc(Cl)c1)N1CCCc2nc(C3(c4cccc(-c5ccc(C(F)(F)F)cc5)c4)CC3)[nH]c(=O)c2C1` [40-8], the IC50 reads like this: under setting [1], under 50 nM; under setting [2], under 10 nM.

As to `O=C([C@H](O)c1cccc(Cl)c1)N1CCCc2nc(C3(c4cccc(-c5ccc(F)cc5)c4)CC3)[nH]c(=O)c2C1` [40-9], the IC50 is under 50 nM under setting [1] and under 3 nM under setting [2].

For `Cn1ncc2c(-c3cccc(C4(c5nc6c(c(=O)[nH]5)CN(C(=O)[C@H](O)c5cccc(Cl)c5)CCC6)CC4)c3)cccc21` [40-10], the 50% inhibitory concentration (IC50) runs as follows: under setting [1], under 50 nM; under setting [2], under 3 nM.

Consider `O=C([C@H](O)c1cccc(Cl)c1)N1CCCc2nc(C3(c4cccc(-c5csc6ccccc56)c4)CC3)[nH]c(=O)c2C1` [40-11], for which the IC50 is under 50 nM under setting [1] and under 3 nM under setting [2].

With `Cn1ncc2cc(-c3cccc(C4(c5nc6c(c(=O)[nH]5)CN(C(=O)[C@H](O)c5cccc(Cl)c5)CCC6)CC4)c3)ccc21` [40-12], the IC50 was under 50 nM under setting [1] and under 3 nM under setting [2].

Regarding `O=C([C@H](O)c1cccc(Cl)c1)N1CCCc2nc(C3(c4cccc(-c5cnn(C6CC6)c5)c4)CC3)[nH]c(=O)c2C1` [40-13], the IC50 by setting is: under setting [1], under 50 nM; under setting [2], under 10 nM.

`COc1cc(-c2cccc(C3(c4nc5c(c(=O)[nH]4)CN(C(=O)[C@H](O)c4cccc(Cl)c4)CCC5)CC3)c2)ccn1` [40-14] came in with an IC50 under setting [1] of under 50 nM and an IC50 under setting [2] of under 3 nM.

`N#CC1(c2ccc(-c3cccc(C4(c5nc6c(c(=O)[nH]5)CN(C(=O)[C@H](O)c5cccc(Cl)c5)CCC6)CC4)c3)cc2)CC1` [40-15] displayed a half-maximal inhibitory concentration (IC50) under setting [1] of under 50 nM and an IC50 under setting [2] of under 3 nM.

For the molecule `O=C([C@H](O)c1cccc(Cl)c1)N1CCCc2nc(C3(c4cccc(-c5cc6ccccc6o5)c4)CC3)[nH]c(=O)c2C1` [40-17], the IC50 under setting [1] was under 50 nM and the IC50 under setting [2] was under 3 nM.

Turning to `O=C([C@H](O)c1cccc(Cl)c1)N1CCCc2nc(C3(c4cccc(-c5cc6ccccc6s5)c4)CC3)[nH]c(=O)c2C1` [40-18], the IC50 by setting is: under setting [1], under 50 nM; under setting [2], under 10 nM.

Take `O=C([C@H](O)c1cccc(Cl)c1)N1CCCc2nc(C3(c4cccc(-c5coc6ccccc56)c4)CC3)[nH]c(=O)c2C1` [40-19]: the IC50 runs as follows: under setting [1], under 50 nM; under setting [2], under 3 nM.

`O=C([C@H](O)c1cccc(Cl)c1)N1CCCc2nc(C3(c4cccc(C5=CCCCC5)c4)CC3)[nH]c(=O)c2C1` [40-20]: the IC50 runs as follows: under setting [1], under 50 nM; under setting [2], under 3 nM.

In the case of `N#Cc1cccc(-c2cccc(C3(c4nc5c(c(=O)[nH]4)CN(C(=O)[C@H](O)c4cccc(Cl)c4)CCC5)CC3)c2)c1` [40-21], the IC50 runs as follows: under setting [1], under 50 nM; under setting [2], under 3 nM.

For `COCCOc1cccc(-c2cccc(C3(c4nc5c(c(=O)[nH]4)CN(C(=O)[C@H](O)c4cccc(Cl)c4)CCC5)CC3)c2)c1` [40-22], the IC50 was under 50 nM under setting [1] and under 3 nM under setting [2].

Take `O=C([C@H](O)c1cccc(C(F)(F)F)c1)N1CCCc2nc(C3(c4cc(-c5ccccc5)cs4)CC3)[nH]c(=O)c2C1` [41-1]: the IC50 runs as follows: under setting [1], under 50 nM; under setting [2], under 3 nM.

In turn, `O=C([C@H](O)c1cccc(C(F)(F)F)c1)N1CCCc2nc(C3(c4cc(-c5cccnc5)cs4)CC3)[nH]c(=O)c2C1` [41-2] gave an IC50 under setting [1] of under 50 nM.

Consider `O=C([C@H](O)c1cccc(C(F)(F)F)c1)N1CCCc2nc(C3(c4cc(-c5cnsc5)cs4)CC3)[nH]c(=O)c2C1` [41-3], for which the IC50 is, setting by setting: under setting [1], under 50 nM; under setting [2], under 10 nM.
